The values below come from US6447997B1, “Gene coding for GADD153 as a clinical diagnostic and prognostic in cancer therapy” (Research Development Foundation, priority 1997, dated 2002).

This assay relates to GADD153 mRNA. Kind of assay: GADD153 mRNA level in 2008 ovarian carcinoma cells after paclitaxel. The assay is classed as cell-based. Particulars: concentration 10 times the IC50, 24 hours.

SMILES strings stand for the structures.

Take `CC(=O)O[C@H]1C(=O)[C@@]2(C)[C@H]([C@H](OC(=O)c3ccccc3)[C@]3(O)C[C@H](OC(=O)[C@H](O)[C@@H](NC(=O)c4ccccc4)c4ccccc4)C(C)=C1C3(C)C)[C@]1(OC(C)=O)CO[C@@H]1C[C@@H]2O` [paclitaxel]: the “increase in GADD153 mRNA level” value stood at 5.7±2.5 fold.
